Literature values, collected in patent US20020107236A1, “Methods of treating sexual dysfunction associated with hypertension” (priority 2000, published 2002).

Tested on: male rats
Details: used for treatment of hypertensive disorder in male rats

In the case of `CCCCc1nc(Cl)c(CO)n1Cc1ccc(-c2ccccc2-c2nn[nH]n2)cc1` [losartan], the “preservation of sexual function” value is listed as “advantage in preservation of sexual function”.
